Experimental data: patent US8168747B2, “On-growth inhibiting compounds” (Viogard AB, priority 2002, dated 2012)
“Also recorded” adds a separate entry of the source.

Columns and labels:
[1] = tested on: Helicoverpa punctigera; conditions: feeding trial, cited from earlier work
[2] = tested on: B. improvisus; assay: Larval bioassay: settlement and mortality of barnacle cyprids; type: in vivo, Balanus improvisus
Description: (§1) The brood stock of adult barnacles (B. improvisus, Darwin 1854) were allowed to settle on plexiglass panels in the sea on a raft outside Tjärnö Marine Biological Laboratory (58° 53′ N, 11° 8′ E). Cleaned from epiphytes they were brought to the laboratory and immediately placed in trays with running seawater (salinity […]). When regularly fed, with nauplii of Artemia salina, B. improvisus will spawn throughout the year. For larval rearing we used the method according to Berntsson et al., described in “Reduction of barnacle recruitment on micro-textured surfaces: Analysis of effective topographic characteristics and evaluation of skin friction”, Biofouling 16, 245-261. The experiment for the evaluation of the effect on settlement and mortality was performed using polystyrene Petri dishes (Ø48 mm) to which 10 ml of the peptide dissolved to different concentrations in filtered seawater (0.2 μm, 32±1%) was added. Competent cyprids (20±2 ind.) were added to each dish in four replicates and dishes with filtered seawater served as controls. Dishes were maintained for 3-4 days in room temperature after which they were examined under a stereo microscope for attached and metamorphosed individuals and also, for dead cyprids.
Results are reported as means±standard error and using 1-factor analysis of variance (ANOVA).

[3] = tested on: B. improvisus; assay: Reversibility test: cyprids moved to fresh seawater; type: in vivo, Balanus improvisus; conditions: cyprids from 2.5 μM moved to fresh sea water; five days
Description: as §1
Half of the number of cyprids in each petri dish incubated at the highest tested concentration, 2.5 μM, were moved to a petri dish containing 10 ml of fresh seawater. […]

Substance	mortality of insect larvae ([1]; over time)	growth and development of the insect larvae [1]	settlement ([2]; 0.0025 μM (lowest tested concentration), 3-4 days, control 67±3%)	settlement ([2]; 0.025 μM, 3-4 days)	inhibition of settlement ([2]; 0.25 μM, 3-4 days)	mortality compared to the control ([2]; all tested concentrations up to 2.5 μM, control saltwater only)	mortality in reversibility test [3]
kalata B1: cyclotide with potent insecticidal activities reported by Jennings and coworkers (cyclo(GLPVCGETCVGGTCNTPGCTCSWPVCTRN); not fully specified (bridges); cysteine pairing not given here; UniProt P56254 89-117, looked up)	increase in mortality over time	greatly affected	–	–	–	–	–
cyclo(VWIPCISSAIGCSCKSKVCYRNGIPCGESC) (head-to-tail cyclic) [cycloviolacin O2]	–	–	68±3%	21±0.5%	complete inhibition of settlement; also recorded: complete inhibition of fouling	No one of the tested concentrations showed an increase in mortality; also recorded: No increase in mortality could be detected	No increase in mortality was observed
